In patent publication US10358437B2, “Therapeutic compounds and uses thereof” (GENENTECH, INC., priority 2014, dated 2019):
Counter-ions that a name gives are not always drawn.

These compounds were tested against T1, PCAF bromodomain (Homo sapiens, UniProt Q92831) (assay: PCAF AlphaLisa binding assay). Details: His/Flag tagged PCAF719-832 bromodomain 225 nM, biotinylated small molecule ligand 6 nM.
T1 construct: Flag; made in house
T1 sequence (Q92831 719-832): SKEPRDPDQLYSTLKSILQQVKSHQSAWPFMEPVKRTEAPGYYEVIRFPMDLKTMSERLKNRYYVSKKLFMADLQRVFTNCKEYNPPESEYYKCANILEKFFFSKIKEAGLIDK
Procedure: IC50 Measurements for Inhibitors Using PCAF AlphaLisa Binding Assay
His/Flag epitope tagged PCAF719-832 bromodomain was cloned, expressed and purified to homogeneity in-house. PCAF bromodomain binding and inhibition of the compounds disclosed herein was assessed by monitoring the engagement of biotinylated small molecule ligand (known to bind to the PCAF bromodomain) with the target using the AlphaLisa technology (Perkin-Elmer). Specifically, in a 384 well ProxiPlate PCAF bromodomain (225 nM final) was combined with the biotinylated small molecule ligand (6 nM final) in 50 mM HEPES (pH 7.5), 75 mM NaCl, 1 mM TCEP, 0.01% (w/v) BSA, and 0.008% (w/v) Brij-35 either in the presence of DMSO (final 0.2% DMSO) or compound dilution series in DMSO. After 15 minute incubation at room temperature AlphaLisa streptavidin acceptor beads and AlphaLisa anti-histidine donor beads were added to a final concentration of 12.5 μg/mL each.
PCAF IC50 values for the Examples 1-22 were determined using the general procedure described above.
With `CN(C)[C@@H]1CCCC[C@H]1Nc1nn(C)c(=O)n(C)c1=O` (racemic) [Example 20, 6-(((1R,2R)-2-(dimethylamino)cyclohexyl)amino)-2,4-dimethyl-1,2,4-triazine-3,5(2H,4H)-dione] the IC50 was 230 nM. Work on `CN1CCc2ccccc2C1CNc1nn(C)c(=O)n(C)c1=O` (racemic) [Example 21, 2,4-dimethyl-6-(((2-methyl-1,2,3,4-tetrahydroisoquinolin-1-yl)methyl)amino)-1,2,4-triazine-3,5(2H,4H)-dione] yielded an IC50 of 1200 nM. For `CN(C)CCN(C)c1nn(C)c(=O)n(C)c1=O` [Example 7, 6-((2-(dimethylamino)ethyl)(methyl)amino)-2,4-dimethyl-1,2,4-triazine-3,5(2H,4H)-dione (trifluoroacetic acid salt)], the IC50 was 37000 nM. `CN(C)C(C)(CNc1nn(C)c(=O)n(C)c1=O)c1ccccc1` (racemic) [Example 15, 6-((2-(dimethylamino)-2-phenylpropyl)amino)-2,4-dimethyl-1,2,4-triazine-3,5(2H,4H)-dione] showed an IC50 of 480 nM. `CN(C)C(CNc1nn(C)c(=O)n(C)c1=O)c1ccc(F)cc1` (racemic) [Example 4, 6-((2-(dimethylamino)-2-(4-fluorophenyl)ethyl)amino)-2,4-dimethyl-1,2,4-triazine-3,5(2H,4H)-dione] showed an IC50 of 280 nM. For `CN(CCNc1nn(C)c(=O)n(C)c1=O)Cc1ccccc1` [Example 9, 6-((2-(benzyl(methyl)amino)ethyl)amino)-2,4-dimethyl-1,2,4-triazine-3,5(2H,4H)-dione], the IC50 was 7500 nM. Compound `CCn1nc(NCC(c2ccccc2)N(C)C)c(=O)n(CC)c1=O` (racemic) [Example 22, 6-((2-(dimethylamino)-2-phenylethyl)amino)-2,4-diethyl-1,2,4-triazine-3,5(2H,4H)-dione] has an IC50 of 12000 nM. In the case of `C[C@H](Nc1nn(C)c(=O)n(C)c1=O)[C@H](c1ccc(S(=O)(=O)c2ccccc2)cc1)N(C)C` (single isomer, unassigned) [Example 18], the IC50 is reported as 70 nM. Compound `CN1Cc2ccccc2CC1CNc1nn(C)c(=O)n(C)c1=O` (racemic) [Example 8, 2,4-dimethyl-6-[(2-methyl-3,4-dihydro-1H-isoquinolin-3-yl)methylamino]-1,2,4-triazine-3,5-dione] has an IC50 of 380 nM. In the case of `CN(C)C(CNc1nn(C)c(=O)n(C)c1=O)Cc1ccccc1` (racemic) [Example 11, 6-((2-(dimethylamino)-3-phenylpropyl)amino)-2,4-dimethyl-1,2,4-triazine-3,5(2H,4H)-dione], the IC50 is reported as 1400 nM. Work on `CN(C)C1CCCN(c2nn(C)c(=O)n(C)c2=O)C1` (racemic) [Example 12, 6-(3-(dimethylamino)piperidin-1-yl)-2,4-dimethyl-1,2,4-triazine-3,5(2H,4H)-dione] yielded an IC50 greater than 20000 nM. Work on `COc1ccc(C(CNc2nn(C)c(=O)n(C)c2=O)N(C)C)cc1` (racemic) [Example 6, 6-((2-(dimethylamino)-2-(4-methoxyphenyl)ethyl)amino)-2,4-dimethyl-1,2,4-triazine-3,5(2H,4H)-dione] yielded an IC50 of 150 nM. In the case of `Cn1nc(NCC(c2ccccc2)N2CCCC2)c(=O)n(C)c1=O` (racemic) [Example 16, 2,4-dimethyl-6-((2-phenyl-2-(pyrrolidin-1-yl)ethyl)amino)-1,2,4-triazine-3,5(2H,4H)-dione], the IC50 is reported as 8100 nM. For `Cn1nc(NCCNc2ccccc2)c(=O)n(C)c1=O` [Example 5, 2,4-dimethyl-6-((2-(phenylamino)ethyl)amino)-1,2,4-triazine-3,5(2H,4H)-dione], the IC50 was 65000 nM. For `CN1CCCC1CNc1nn(C)c(=O)n(C)c1=O` (racemic) [Example 3, 2,4-dimethyl-6-(((1-methylpyrrolidin-2-yl)methyl)amino)-1,2,4-triazine-3,5(2H,4H)-dione], the IC50 was 2500 nM. Compound `CN(C)C(CNc1nn(C)c(=O)n(C)c1=O)c1ccc(C(F)(F)F)cc1` (racemic) [Example 14, 6-((2-(dimethylamino)-2-(4-(trifluoromethyl)phenyl)ethyl)amino)-2,4-dimethyl-1,2,4-triazine-3,5(2H,4H)-dione] has an IC50 of 250 nM. `CN(C)[C@H]1CCCC[C@H]1Nc1nn(C)c(=O)n(C)c1=O` (racemic) [Example 19, 6-((2-(dimethylamino)cyclohexyl)amino)-2,4-dimethyl-1,2,4-triazine-3,5(2H,4H)-dione hydrochloride] gave an IC50 of 1100 nM. Work on `CN1c2ccccc2CCC1CNc1nn(C)c(=O)n(C)c1=O` (racemic) [Example 2, 2,4-dimethyl-6-(((1-methyl-1,2,3,4-tetrahydroquinolin-2-yl)methyl)amino)-1,2,4-triazine-3,5(2H,4H)-dione] yielded an IC50 greater than 20000 nM. Work on `CN(CCNc1nn(C)c(=O)n(C)c1=O)CC(F)(F)F` [Example 1, 2,4-dimethyl-6-((2-(methyl(2,2,2-trifluoroethyl)amino)ethyl)amino)-1,2,4-triazine-3,5(2H,4H)-dione] yielded an IC50 greater than 20000 nM. Work on `Cn1nc(N2CCNC(c3ccccc3)C2)c(=O)n(C)c1=O` (racemic) [Example 13, 2,4-dimethyl-6-(3-phenylpiperazin-1-yl)-1,2,4-triazine-3,5(2H,4H)-dione] yielded an IC50 greater than 20000 nM. In the case of `C[C@H](Nc1nn(C)c(=O)n(C)c1=O)[C@H](c1ccccc1)N(C)C` (single isomer, unassigned) [Example 17], the IC50 is reported as 120 nM. With `CN(C)C(CNc1nn(C)c(=O)n(C)c1=O)c1cccc(Cl)c1` (racemic) [Example 10, 6-((2-(3-chlorophenyl)-2-(dimethylamino)ethyl)amino)-2,4-dimethyl-1,2,4-triazine-3,5(2H,4H)-dione] the IC50 was 430 nM.
